# Assays:
# human α1A‐adrenoceptor [1] = target: T1, human α1A‐adrenoceptor (Homo sapiens, UniProt P35348); assay: ^3H‐prazosin whole‐cell radioligand binding, CHO‐α1A cells; details: for Kd: CHO‐α1A cells, given as log KD (negative), mean ± SEM; for Affinity selectivity ratio α1A vs α1B: higher affinity for α1A than α1B; for Affinity selectivity ratio α1A vs α1D: higher affinity for α1A than α1D
# T1 construct: expressed in transfected cells; host or cells: CHO-K1
# T1 sequence (P35348 1-466): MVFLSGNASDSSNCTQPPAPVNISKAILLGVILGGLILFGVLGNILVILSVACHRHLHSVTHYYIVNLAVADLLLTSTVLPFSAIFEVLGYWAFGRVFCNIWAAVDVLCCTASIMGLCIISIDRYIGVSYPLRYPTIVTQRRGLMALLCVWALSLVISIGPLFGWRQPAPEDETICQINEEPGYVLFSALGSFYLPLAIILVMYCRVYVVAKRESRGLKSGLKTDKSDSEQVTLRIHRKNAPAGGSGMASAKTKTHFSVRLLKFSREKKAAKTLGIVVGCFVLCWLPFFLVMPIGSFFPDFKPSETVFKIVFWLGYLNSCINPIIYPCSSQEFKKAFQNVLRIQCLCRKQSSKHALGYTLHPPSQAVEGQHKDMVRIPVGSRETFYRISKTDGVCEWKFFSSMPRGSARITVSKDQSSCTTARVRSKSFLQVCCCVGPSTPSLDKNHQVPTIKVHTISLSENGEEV
# human α1A‐adrenoceptor [2] = target: T1, human α1A‐adrenoceptor; assay: ^3H‐cAMP accumulation, CHO‐α1A cells; format: cell-based; details: CHO‐α1A cells; for EC50: 5 h, read-out: cAMP accumulation Log EC50 (converted); for cAMP accumulation % forskolin: % of 10 µM forskolin response; for cAMP accumulation % forskolin at 100 µM: response at 100 μM ligand, no EC50 obtained
# [3] = target: T2, human α1D‐adrenoceptor (full length) (Homo sapiens, UniProt P25100); assay: ^3H‐cAMP accumulation, CHO‐α1D cells; format: cell-based; details: cAMP accumulation without forskolin
# T2 construct: human α1D‐adrenoceptor (full length) were used; expressed in transfected cells; host or cells: CHO-K1
# T2 sequence (P25100 1-572): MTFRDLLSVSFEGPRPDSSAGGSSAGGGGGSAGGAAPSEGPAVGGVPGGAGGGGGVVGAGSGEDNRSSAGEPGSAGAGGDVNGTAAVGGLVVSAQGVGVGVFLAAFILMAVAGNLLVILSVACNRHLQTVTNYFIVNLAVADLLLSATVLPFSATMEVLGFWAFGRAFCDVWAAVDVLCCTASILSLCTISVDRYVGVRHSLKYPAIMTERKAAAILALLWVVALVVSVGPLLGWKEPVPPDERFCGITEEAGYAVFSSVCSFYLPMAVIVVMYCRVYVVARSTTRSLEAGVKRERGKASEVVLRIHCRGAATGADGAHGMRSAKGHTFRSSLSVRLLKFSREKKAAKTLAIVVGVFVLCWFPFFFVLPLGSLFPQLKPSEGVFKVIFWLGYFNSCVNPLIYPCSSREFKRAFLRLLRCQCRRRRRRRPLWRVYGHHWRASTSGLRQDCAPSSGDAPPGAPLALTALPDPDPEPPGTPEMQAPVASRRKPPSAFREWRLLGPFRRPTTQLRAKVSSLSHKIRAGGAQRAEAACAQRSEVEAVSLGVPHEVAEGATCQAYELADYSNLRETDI
# human α1A‐adrenoceptor [4] = target: T1, human α1A‐adrenoceptor; assay: ^3H‐cAMP accumulation in the presence of 10 μM forskolin, CHO‐α1A cells; format: cell-based; details: CHO‐α1A cells; for EC50: 10 μM forskolin, read-out: cAMP accumulation (in presence of forskolin) Log EC50 (converted); for cAMP accumulation (in presence of forskolin) Fold increase: fold increase of the forskolin response
# [5] = system: parental CHO cell line without any transfected receptors; assay: Intracellular calcium mobilization, parent CHO cells without transfected receptors; format: cell-based, Chinese hamster; details: Cricetulus griseus; CHO cells without transfected receptors; response at maximum concentration used (c2), as % of ionomycin (10μM) response; mean ± s.e.m.; read-out: Intracellular calcium release % ionomycin
# [6] = Log KD α1A, ^3H‐prazosin whole cell binding
Kd (human α1A‐adrenoceptor [1]),Affinity selectivity ratio α1A vs α1B (human α1A‐adrenoceptor [1]),Affinity selectivity ratio α1A vs α1D (human α1A‐adrenoceptor [1]),EC50 (human α1A‐adrenoceptor [2]),cAMP accumulation % forskolin (human α1A‐adrenoceptor [2]),cAMP Log EC50 [3],EC50 (human α1A‐adrenoceptor [4]),cAMP accumulation (in presence of forskolin) Fold increase (human α1A‐adrenoceptor [4]),cAMP accumulation % forskolin at 100 µM (human α1A‐adrenoceptor [2]),Kd (human α1A‐adrenoceptor [1]; [6]),Compound,Emax [5]
457 nM,7.9 fold,9.5 fold,871 nM,11.9 ± 1.6%,No response,661 nM,1.98 ± 0.14 fold,–,–,CC(CCc1ccc(O)cc1)NCCc1ccc(O)c(O)c1 (stereo not shown) [Dobutamine],–
85100 nM,>11.7 fold,–,–,–,No response,813 nM,2.54 ± 0.11 fold,122.7 ± 9.8%,–,C[C@H](N)[C@H](O)c1cccc(O)c1 [Metaraminol],–
4680 nM,28.8 fold,2.5 fold,2880 nM,41.1 ± 2.3%,No response,155 nM,2.22 ± 0.05 fold,–,–,N=C(N)NC(=O)Cc1c(Cl)cccc1Cl [Guanfacine],11.5 ± 2.9%
–,12.9 fold,1.1 fold,1660 nM,65.6 ± 6.5%,–,123 nM,2.36 ± 0.10 fold,–,3470 nM,Clc1ccc2nsnc2c1NC1=NCCN1 [Tizanidine],–
–,6.3 fold,7.1 fold,269 nM,57.9 ± 5.7%,No response,41.7 nM,2.18 ± 0.05 fold,–,288 nM,c1ccc2c(CC3=NCCN3)cccc2c1 [Naphazoline],–
–,>9.8 fold,–,–,–,No response,1290 nM,2.17 ± 0.08 fold,82.7 ± 5.5%,102000 nM,CCNCC(O)c1cccc(O)c1 (stereo not shown) [Etilefrine],–
–,>42.7 fold,6.5 fold,4900 nM,120.0 ± 3.7%,No response,398 nM,2.19 ± 0.09 fold,–,23400 nM,COc1ccc(OC)c(C(O)C(C)N)c1 (stereo not shown) [Methoxamine],–

Compound,Kd (human α1A‐adrenoceptor [1]),Affinity selectivity ratio α1A vs α1B (human α1A‐adrenoceptor [1]),Affinity selectivity ratio α1A vs α1D (human α1A‐adrenoceptor [1]),EC50 (human α1A‐adrenoceptor [2]),cAMP accumulation % forskolin (human α1A‐adrenoceptor [2]),cAMP Log EC50 [3],EC50 (human α1A‐adrenoceptor [4]),cAMP accumulation (in presence of forskolin) Fold increase (human α1A‐adrenoceptor [4]),cAMP accumulation % forskolin at 100 µM (human α1A‐adrenoceptor [2]),Kd (human α1A‐adrenoceptor [1]; [6]),Emax [5]
c1ccc(C2CC2)c(OCC2=NCCN2)c1 [Cirazoline],676 nM,11.7 fold,4.4 fold,123 nM,108.9 ± 6.5%,No response,10.7 nM,2.38 ± 0.15 fold,–,–,4.5 ± 0.8%

# Source: article PMC8343220, “The selectivity of α‐adrenoceptor agonists for the human α1A, α1B, and α1D‐adrenoceptors” (Pharmacology Research & Perspectives, 2021)
